From ChEMBL document CHEMBL4411276, “Chemistry-oriented synthesis (ChOS) and target deconvolution on neuroprotective effect of a novel scaffold, oxaza spiroquinone” (Eur J Med Chem, 2019)

Key:
[1] = Cytotoxicity against mouse BV2 cells assessed as cell survival after 24 hrs by MTT assay relative to control; format: cell-based, BV-2; parameters: concentration or dose not given beside the values; details: read-out: Survival
[2] = biological target: T1, NUAK family SNF1-like kinase 1 (Homo sapiens) (UniProt O60285); assay: Inhibition of human ARK5 assessed as enzyme activity at 30 uM using KKKVSRSGLYRSPSMPENLNRPR as substrate by [gamma-33P]-ATP assay relative to control; parameters: scale not given: the % may be the effect or the level left
T1 sequence (whole entry): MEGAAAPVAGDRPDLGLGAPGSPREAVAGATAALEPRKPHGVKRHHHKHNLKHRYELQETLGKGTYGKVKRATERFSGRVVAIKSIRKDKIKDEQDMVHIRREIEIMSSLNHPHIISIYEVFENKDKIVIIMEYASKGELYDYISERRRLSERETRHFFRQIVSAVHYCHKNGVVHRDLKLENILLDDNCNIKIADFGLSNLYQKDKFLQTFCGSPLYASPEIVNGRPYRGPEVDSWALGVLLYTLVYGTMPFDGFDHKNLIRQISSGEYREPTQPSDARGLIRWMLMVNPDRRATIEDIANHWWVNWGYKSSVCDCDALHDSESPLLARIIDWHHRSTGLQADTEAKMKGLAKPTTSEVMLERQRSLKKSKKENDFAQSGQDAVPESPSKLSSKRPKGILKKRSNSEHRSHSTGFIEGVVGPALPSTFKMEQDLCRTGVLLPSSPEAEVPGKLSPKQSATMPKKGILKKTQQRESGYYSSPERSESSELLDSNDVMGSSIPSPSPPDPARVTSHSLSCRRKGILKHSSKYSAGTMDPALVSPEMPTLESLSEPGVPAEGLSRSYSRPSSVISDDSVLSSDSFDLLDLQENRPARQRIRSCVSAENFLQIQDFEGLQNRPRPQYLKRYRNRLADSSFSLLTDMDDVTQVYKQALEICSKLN

[3] = biological target: Serine/threonine-protein kinase N2 (Homo sapiens) (UniProt Q16513); assay: Inhibition of human PKN2 assessed as enzyme activity at 30 uM using KKLNRTLSVA as substrate by [gamma-33P]-ATP assay relative to control; parameters: scale not given: the % may be the effect or the level left
[4] = biological target: T2, Dual serine/threonine and tyrosine protein kinase (Homo sapiens) (UniProt Q6XUX3); assay: Inhibition of human RIPK5 assessed as enzyme activity at 30 uM using MBP as substrate by [gamma-33P]-ATP assay relative to control; parameters: scale not given: the % may be the effect or the level left
T2 sequence (whole entry): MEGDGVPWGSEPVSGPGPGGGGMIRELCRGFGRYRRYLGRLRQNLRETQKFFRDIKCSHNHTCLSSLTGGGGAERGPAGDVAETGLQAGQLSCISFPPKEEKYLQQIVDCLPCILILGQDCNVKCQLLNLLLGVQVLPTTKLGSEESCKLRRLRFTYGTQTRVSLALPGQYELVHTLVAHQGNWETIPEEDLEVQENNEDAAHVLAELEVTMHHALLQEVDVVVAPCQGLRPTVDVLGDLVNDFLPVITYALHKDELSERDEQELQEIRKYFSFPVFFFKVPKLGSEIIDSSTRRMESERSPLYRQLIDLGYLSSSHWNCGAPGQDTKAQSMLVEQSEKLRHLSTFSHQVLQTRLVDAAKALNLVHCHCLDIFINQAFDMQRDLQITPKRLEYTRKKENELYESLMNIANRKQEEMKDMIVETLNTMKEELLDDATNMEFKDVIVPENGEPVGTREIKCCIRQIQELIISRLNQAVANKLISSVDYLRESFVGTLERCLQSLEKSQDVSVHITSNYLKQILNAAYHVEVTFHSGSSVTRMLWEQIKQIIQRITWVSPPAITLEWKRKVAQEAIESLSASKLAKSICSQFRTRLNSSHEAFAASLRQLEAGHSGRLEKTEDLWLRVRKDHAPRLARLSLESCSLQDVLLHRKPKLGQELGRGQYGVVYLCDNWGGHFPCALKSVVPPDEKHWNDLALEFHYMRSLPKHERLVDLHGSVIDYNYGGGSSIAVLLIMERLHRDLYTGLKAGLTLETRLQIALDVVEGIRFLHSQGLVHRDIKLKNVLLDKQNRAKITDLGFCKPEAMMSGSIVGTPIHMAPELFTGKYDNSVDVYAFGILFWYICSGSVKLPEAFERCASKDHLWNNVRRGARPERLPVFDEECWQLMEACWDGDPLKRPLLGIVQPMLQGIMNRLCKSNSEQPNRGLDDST

Mus musculus [5] = assay: Effect on total entries in ICR mouse model of scopolamine-induced memory impairment at 5 mg/kg by Y-maze test; format: ADME, organism-based; details: in vivo
[6] = biological target: Serine/threonine-protein kinase 24 (Homo sapiens) (UniProt Q9Y6E0); assay: Inhibition of human MST3 assessed as enzyme activity at 30 uM using MBP as substrate by [gamma-33P]-ATP assay relative to control; parameters: scale not given: the % may be the effect or the level left
[7] = biological target: Protein kinase C beta type (Homo sapiens) (UniProt P05771); assay: Inhibition of human PKCb2 assessed as enzyme activity at 30 uM using Histone H1 as substrate by [gamma-33P]-ATP assay relative to control; parameters: scale not given: the % may be the effect or the level left
[8] = biological target: CDK2/Cyclin O (Homo sapiens) (UniProt P24941+P22674); assay: Inhibition of human CDK2/cyclin-O assessed as enzyme activity at 30 uM using histone H1 as substrate by [gamma-33P]-ATP assay relative to control; format: protein-complex assay; parameters: scale not given: the % may be the effect or the level left
[9] = biological target: Mitogen-activated protein kinase 8 (Homo sapiens) (UniProt P45983); assay: Inhibition of human JNK1 assessed as enzyme activity at 30 uM using ATF2 as substrate by [gamma-33P]-ATP assay relative to control; parameters: scale not given: the % may be the effect or the level left
BV-2 = assay: Anti-inflammatory activity in mouse BV2 cells assessed as reduction in LPS-induced NO production pre-treated before LPS stimulation for 24 hrs by Griess reagent-based assay; format: functional, cell-based
[10] = biological target: CDK3/Cyclin E (Homo sapiens) (UniProt P24864+Q00526); assay: Inhibition of human CDK3/cyclin-E assessed as enzyme activity at 30 uM using histone H1 as substrate by [gamma-33P]-ATP assay relative to control; format: protein-complex assay; parameters: scale not given: the % may be the effect or the level left
[11] = biological target: Death-associated protein kinase 1 (Homo sapiens) (UniProt P53355); assay: Inhibition of human DAPK1 assessed as enzyme activity at 30 uM using KKLNRTLSFAEPG as substrate by [gamma-33P]-ATP assay relative to control; parameters: scale not given: the % may be the effect or the level left
Mus musculus [12] = assay: Cognition enhancing effect in ICR mouse model of scopolamine-induced memory impairment assessed as spontaneous alteration at 10 mg/kg by Y-maze test (reference value: 45.14%); format: functional
[13] = Cytotoxicity against LPS-stimulated mouse BV2 cells assessed as cell survival after 24 hrs by MTT assay relative to control; format: cell-based, BV-2; parameters: concentration or dose not given beside the values; details: read-out: Survival
[14] = biological target: Protein kinase C alpha type (Homo sapiens) (UniProt P17252); assay: Inhibition of human PKCalpha assessed as enzyme activity at 30 uM using ERMRPRKRQGSVRRRV as substrate by [gamma-33P]-ATP assay relative to control; parameters: scale not given: the % may be the effect or the level left
[15] = biological target: Serine/threonine-protein kinase 25 (Homo sapiens) (UniProt O00506); assay: Inhibition of human STK25 assessed as enzyme activity at 30 uM using MBP as substrate by [gamma-33P]-ATP assay relative to control; parameters: scale not given: the % may be the effect or the level left

## O=C1C=CC2(C=C1)OCC(Cc1cc(C(F)(F)F)cc(C(F)(F)F)c1)C(=O)N2c1ccccc1 (stereo unspecified)
[1]
  viability at 24 h: 85.4%
[2]
  Activity: 70.7 to 70.8%
[3]
  Activity: 62.2 to 64.8%
[4]
  Activity: 58.6 to 59.9%
Mus musculus [5]
  Activity: Non-Toxic
[6]
  Activity: 57.6 to 58.2%
[7]
  Activity: 67.7 to 71.2%
[8]
  Activity: 42.3 to 43.8%
[9]
  Activity: 35.6 to 36%
BV-2
  IC50: 70 nM
[10]
  Activity: 58.5 to 60.2%
[11]
  Activity: 45.3 to 45.4%
Mus musculus [12]
  Activity: 59.62%
[13]
  viability at 24 h: 92.1%
[14]
  Activity: 44.8 to 46.5%
[15]
  Activity: 66.9 to 67%
